Laboratory results taken from patent US20060165827A1, “Anti diarrhoea compositions” (Loders Croklaan USA LLC, priority 2002, published 2006).

Tests used:
growing piglets = assay: Growth, food intake and food conversion of weaned piglets on supplemented feed; assay type: in vivo, pig
Text: (§1) Evaluate the effect of supplementation with shea sterols on growth and post-weaning diarrhoea of growing piglets.
(§2) One day before the start of the experiment the pigs are weighed. The piglets are distributed over the different treatment groups with the aim to establish group equality in weight, sex. Piglets smaller than 5 kg or piglets with physical disturbances are excluded from the study.
(§3) At a mean age of 27 days the pigs are weaned and randomly assigned to the 3 experimental groups and are then treated for 35 days. Pigs are fed ad libitum. The first 14 days post weaning the pigs are fed a prestarter diet. Subsequently, the piglets are changed in a period of 3 days to a starter diet. Throughout the 35 day study period the food is supplemented with either:
(§4) 1. without antimicrobial growth enhancers
(§5) 2. with antimicrobial growth enhancers (AMGB: 40 ppm avilamycine)
(§6) 3. with shea oleine (0.4%)
(§7) The shea oleine contained 8 wt % sterols and pentacyclic terpenes. The shea oleine was obtained by fractionation of the extract from shea nuts into a stearine and oleine fraction, followed by partial bleaching and deodorising.
Piglets were weighed at the start of the experiment, at 14 days and at day 34.

[1] = test system: post-weaning diarrhoea of growing piglets; assay: Incidence of post-weaning diarrhoea in weaned piglets on supplemented feed; assay type: in vivo, pig
Text: as §1, §2, §3, §4, §5, §6, §7

[2] = from weaning till 14 days post weaning
[3] = from weaning till 14 days post weaning, p < 0.001

avilamycine [AMGB]
EW-conversion (growing piglets; from day 1 till day 34): 1.64
EW-intake per day (growing piglets; from day 1 till day 34): 0.57
food conversion (growing piglets; from day 1 till day 34): 1.49
food intake (growing piglets; from day 1 till day 34): 0.52 kg/day
growth rate (growing piglets; from day 1 till day 34): 352 g/day
weight (growing piglets; from day 1 till day 34): 20.9 kg
EW-conversion (growing piglets; from day 15 till day 34): 1.70
EW-intake per day (growing piglets; from day 15 till day 34): 0.79
food conversion (growing piglets; from day 15 till day 34): 1.55
food intake (growing piglets; from day 15 till day 34): 0.72 kg/day
growth rate (growing piglets; from day 15 till day 34): 468 g/day
weight (growing piglets; from day 15 till day 34): 10.5 kg
EW-conversion (growing piglets; [2]): 1.43
food conversion (growing piglets; [2]): 1.28
growth rate (growing piglets; [2]): 185 g/day
EW-intake per day (growing piglets; [3]): 0.26
food intake (growing piglets; [3]): 0.23 kg/day
weight at weaning (growing piglets; piglets, at weaning (start of experiment)): 7.7 kg
Incidence of diarrhoea: no diarrhoea ([1]; First week post-weaning): 81.2%
Incidence of diarrhoea: past (paste-like) diarrhoea ([1]; First week post-weaning): 17.6%
Incidence of diarrhoea: watery diarrhoea ([1]; First week post-weaning): 1.2%
Incidence of diarrhoea: past (paste-like) diarrhoea ([1]; Second week post-weaning): 9.5%
Incidence of diarrhoea: watery diarrhoea ([1]; Second week post-weaning): 0.2%
Incidence of diarrhoea: no diarrhoea ([1]; Second week post-weaning, p < 0.1): 90.3%
Incidence of diarrhoea: past (paste-like) diarrhoea ([1]; Third week post-weaning): 9.0%
Incidence of diarrhoea: watery diarrhoea ([1]; Third week post-weaning): 0.5%
Incidence of diarrhoea: no diarrhoea ([1]; Third week post-weaning, p < 0.01): 90.5%
number of animals required treatment ([1]; veterinary treatment during the study): 23
